Source: ChEMBL document CHEMBL3860047, “Modulating the strength of hydrogen bond acceptors to achieve low Caco2 efflux for oral bioavailability of PARP inhibitors blocking centrosome clustering” (Bioorg Med Chem Lett, 2016)

Assay: Dissociation constant, pKa of the compound
Type: physicochemical

| SMILES | pKa |
| --- | --- |
| CN(C)C(=O)c1ccccc1 | 1.2 |
| NCc1ccccc1 [BENZYLAMINE] | 9.6 |
| C[S+](C)[O-] [DIMETHYL SULFOXIDE] | 1.54 |
| c1ccnnc1 [PYRIDAZINE] | 2.24 |
